Measurements published in patent US20240391940A1, “FUSED RING-CONTAINING COMPOUND, APPLICATION THEREOF, AND COMPOSITION CONTAINING SAME” (GenEros Biopharma Ltd., priority 2020, published 2024).
“And” between values parts separate entries of the source, which are not always exact repeats. Equal values may be shown once.

System: adjuvant arthritis (AIA) rat model
Assay: Rat AIA (adjuvant arthritis) model
Type: in vivo, Lewis rats
Details: for Hind paw volume / body weight / clinical scores: 10 mg/kg daily from day 9, individual animals, 10 mg/kg

With `O=C(Cc1ccc2ncccc2c1)N1CCC(n2c(=O)[nH]c3cccc(C(F)(F)F)c32)CC1` [GEN1-117, 1-(1-(2-(Quinolin-6-yl)acetyl)piperidin-4-yl)-7-(trifluoromethyl)-1H-benzo[d]imidazol-2(3H)-one] the “Maximum arthritis index score compared to the control rats” value was “can effectively relieve the AIA rat arthritis disease model”, the Body weight change (AIA rats, GEN1-117 intervention group) was “gained significant weight” and the “Increase in hind paw volume and clinical score” value (AIA rats, daily intraperitoneal injection) was “dose-dependently inhibited”. For the same compound, the Hind paw volume (AIA rats, day 9) was 1.23 and 1.41 and 1.46 and 1.38 (2×) and 1.18 and 1.15 and 1.31 and 1.35 and 1.12 and 1.68 and 1.27, the “body weight” value (AIA rats, day 9) was 166 g and 154 g (2×) and 153 g (2×) and 158 g and 145 g and 169 g (2×) and 175 g and 168 g and 164 g and the clinical scores (AIA rats, day 9) was 0 (9×) and 0.17 and 1 (2×). The “body weight” value (AIA rats, day 10) was 156 g and 151 g and 155 g and 152 g (2×) and 143 g and 135 g and 159 g and 165 g and 158 g (3×), the Hind paw volume (AIA rats, day 11) was 1.19 and 1.3 (2×) and 1.65 and 0.97 and 1.17 and 1.18 (2×) and 1.13 and 1.08 and 1.92 and 1.23 and the “body weight” value (AIA rats, day 11) was 156 g and 150 g and 153 g and 152 g and 140 g and 132 g and 155 g (2×) and 164 g and 158 g and 157 g and 146 g. For the same compound, the clinical scores (AIA rats, day 11) was 0 (8×) and 0.75 and 2.5 and 1.5 and 0.5, the “body weight” value (AIA rats, day 12) was 158 g and 153 g and 154 g and 155 g and 143 g and 137 g and 159 g and 164 g and 160 g and 156 g and 162 g and 148 g and the Hind paw volume (AIA rats, day 13) was 1.25 (2×) and 1.93 and 2.35 and 1.08 and 1.26 (2×) and 0.84 and 1.38 and 1.03 and 2.32 and 1.28. The “body weight” value (AIA rats, day 13) was 157 g and 158 g and 155 g and 159 g and 145 g and 143 g and 161 g (2×) and 167 g and 165 g and 169 g and 149 g, the clinical scores (AIA rats, day 13) was 0 (7×) and 1 (2×) and 3 and 0.17 and 1.67 and the “body weight” value (AIA rats, day 14) was 164 g (2×) and 160 g and 155 g and 166 g and 151 g and 150 g (2×) and 170 g (2×) and 173 g and 172 g. The Hind paw volume (AIA rats, day 15) was 1.27 (2×) and 2.03 and 2.2 and 1.04 and 1.1 and 1.38 and 1.08 and 1.11 and 1.26 and 2.93 and 1.66, the “body weight” value (AIA rats, day 15) was 162 g and 159 g and 151 g (2×) and 169 g and 154 g and 176 g and 174 g (2×) and 170 g and 175 g and 149 g and the clinical scores (AIA rats, day 15) was 0 (4×) and 2 (2×) and 5.5 and 0.17 (4×) and 3.5. For the same compound, the “body weight” value (AIA rats, day 16) was 165 g and 164 g and 158 g and 135 g and 156 g and 155 g and 180 g and 177 g and 179 g and 175 g and 176 g and 147 g, the “body weight” value (AIA rats, day 17) was 169 g and 170 g and 152 g and 181 g and the clinical scores (AIA rats, day 17) was 0 (8×) and 1.83 (2×) and 5 and 3.5. The Hind paw volume (AIA rats, day 17, in mL (unit assumed)) was 1.14 and 2.03 and 1.62 and 0.88 and 1.12 and 1.28 and 1.06 and 1.41 and 1.09 and 1.03 and 2.61 and 1.88, the clinical scores (AIA rats, day 19) was 0 (7×) and 2.5 and 4 and 0.5 and 2 and 4.25 and the Hind paw volume (AIA rats, day 19, in mL (unit assumed)) was 1.42 and 3.18 and 2.26 and 1.39 and 1.25 and 1.37 and 1.26 and 1.65 and 1.28 and 1.38 and 2.43 and 2.78. The Hind paw volume (AIA rats, day 21) was 1 and 3.15 and 1.95 and 1.08 (2×) and 0.86 and 1.09 and 1.33 and 1.04 and 1.14 and 2.65 and 2.14, the clinical scores (AIA rats, day 21) was 0 (7×) and 2.67 and 5.33 and 0.5 and 2 and 4.17 and the Hind paw volume (AIA rats, day 23) was 0.99 and 3.36 and 2.21 and 1.25 and 0.88 and 0.93 and 0.96 and 1.26 and 1.08 (2×) and 2.87 and 1.89. The clinical scores (AIA rats, day 23) was 0 (7×) and 3 and 4 (2×) and 0.5 and 2.5, the “Clinical scores compared to the control rats” value (days 13-23) was “significant reductions in clinical scores” and the “Hind paw volume compared to the control rats” value (days 17-23) was “significantly decreased”.
